Values of other authors in PubChem BioAssay AID1259409 (Chemical Carcinogenesis Research Information System (CCRIS), 2018).

Test system: rodent chemically induced tumor inhibition, incidence and multiplicity
Assay: CCRIS tumor inhibitor studies

## COc1cc(OC)c2ccc(=O)oc2c1
Carcinogen: 7,12-DIMETHYLBENZ(A)ANTHRACENE, 57-97-6, Dose [Inhibitor]: 0.068 MMOL/G IN DIET FOR 8 D BEGINNING 7 D PRIOR TO CARCINOGEN DOSE (STUDY DURATION: 23 WK), Route [Inhibitor]: ORAL, Species: RAT, Strain/Sex: SPRAGUE-DAWLEY/FEMALE, Target Tissue: Type of Lesion: MAMMARY GLAND: TUMOR, Dose [Carcinogen]: 12 MG IN 1.0 ML OLIVE OIL ONCE ON D 7 OF EXPERIMENT, Promoter: NONE USED
  tumour outcome (control, treated, inhibition, significance): 85%, 38%, 55%, p<0.05
Carcinogen: BENZO[A]PYRENE, 50-32-8, Dose [Inhibitor]: 0.034 MMOL/G IN DIET BEGINNING 1 WK PRIOR TO FIRST CARCINOGEN DOSE AND CONTINUING FOR 3 D POST LAST CARCINOGEN DOSE FOR, Route [Inhibitor]: ORAL, Species: MOUSE, Strain/Sex: ICR/FEMALE, Target Tissue: Type of Lesion: FORESTOMACH: TUMOR, Dose [Carcinogen]: 1 MG IN 0.2 ML CORN OIL 2/WK FOR 4 WK, Promoter: NONE USED
  tumour outcome (control, treated, inhibition, significance): 100%, 94%, 6%, not significant

## S=C=Nc1cc2ccccc2c2ccccc12
Carcinogen: BENZO[A]PYRENE, 50-32-8, Dose [Inhibitor]: 0, 5 UMOL IN ACETONE 4 HR PRIOR TO CARCINOGEN DOSE (STUDY DURATION: 20 WK), Route [Inhibitor]: DERMAL, Species: MOUSE, Strain/Sex: STRAIN-A/FEMALE, Target Tissue: Type of Lesion: SKIN: TUMOR, Dose [Carcinogen]: 0.1 UMOL IN ACETONE ONCE, Promoter: 12-O-TETRADECANOYLPHORBOL-13-ACETATE, 16561-29-8
  outcome: 85%, 95%, -12%, not significant at 15 wk; 95%, 95%, 0%, not significant at 20 wk

## OCCOc1ccc(/C(=C(/CCCl)c2ccccc2)c2ccccc2)cc1
Carcinogen: 7,12-DIMETHYLBENZ[A]ANTHRACENE (DMBA) (57-97-6), Dose [Inhibitor]: 50 MG/KG/D FOR 37 WK (STUDY DURATION: 37 WK), Route [Inhibitor]: ORAL GAVAGE, Species: MOUSE, Strain/Sex: SENCAR/FEMALE, Target Tissue: Type of Lesion: MAMMARY: CARCINOMA, Dose [Carcinogen]: 20 UG/D FOR 6 WKS (STUDY DURATION: 37 WKS), Promoter: MEDROXYPROGESTERONE ACETATE (71-58-9)
  tumour outcome (control, treated, inhibition, significance): 10/21 (48%); 1/18 (6%), 88%, p=0.003
Carcinogen: 7,12-DIMETHYLBENZ[A]ANTHRACENE (DMBA) [57-97-6], Dose [Inhibitor]: 50 MG/KG/D FOR 52 WK (STUDY DURATION: 52 WK), Route [Inhibitor]: ORAL GAVAGE, Species: MOUSE, Strain/Sex: SENCAR/FEMALE, Target Tissue: Type of Lesion: MAMMARY: CARCINOMA, Dose [Carcinogen]: 20 UG/D FOR 6 WKS, Promoter: MEDROXYPROGESTERONE ACETATE (71-58-9)
  tumour outcome (control, treated, inhibition, significance): 13/23 (57%); 1/20 (5%), 91%, p=0.0003

## CC(O)CCCc1ccccc1 (configuration not stated)
Carcinogen: 4-(METHYLNITROSAMINO)-1-(3-PYRIDYL)-1-BUTANONE, 64091-91-4, Dose [Inhibitor]: 0, 25 UMOL IN 0.1 ML CORN OIL ONCE 2 HR PRIOR TO CARCINOGEN DOSE (STUDY DURATION: 16 WK), Route [Inhibitor]: GAVAGE, Species: MOUSE, Strain/Sex: STRAIN-A/FEMALE, Target Tissue: Type of Lesion: LUNG: TUMOR, Dose [Carcinogen]: 10 UMOL IN 0.1 ML SALINE ONCE, Promoter: NONE USED
  tumour outcome (control, treated, inhibition, significance): 100%, 100%, 0%, not significant

## CSc1ccc(O)cc1
Carcinogen: BENZO[A]PYRENE, 50-32-8, Dose [Inhibitor]: 0.03 MMOL/G OF DIET DAILY STARTING 7 D BEFORE AND CONTINUING THROUGH 3 D AFTER CARCINOGEN TREATMENT FOLLOWED BY OBSERVAT, Route [Inhibitor]: ORAL, Species: MOUSE, Strain/Sex: ICR/FEMALE, Target Tissue: Type of Lesion: FORESTOMACH: NEOPLASM, Dose [Carcinogen]: 1 MG IN 0.2 ML CORN OIL 2/WK FOR 4 WK, Promoter: NONE USED
  tumour outcome (control, treated, inhibition, significance): 100%, 89%, 11%, not significant
